Measured values reported in patent US20260297070A1, “CYCLIC [COMPOUND LEFT OUT] WRN INHIBITORS” (Nimbus Wadjet, Inc., priority 2023, published 2026).

The compounds below were run against T1, human Werner helicase (WRN-BV08, Uniprot Q14191, amino acids 517-1235 with L1074F point mutation) (Homo sapiens, UniProt Q14191, L1074F) (assay: WRN (BV08) ADP-Glo Assay). Settings: 0.15 nM WRN, 5 μM ATP, 0.1 nM DNA duplex, 15 min preincubation, 60 min at 25° C., pH 7.5, 1% DMSO; read-out: ADP-Glo_hWRN_IC50.
T1 construct: Uniprot Q14191, amino acids 517-1235 with L1074F point mutation; TEV-cleavable 8×His (C, cleaved yes); made in house; host or cells: Sf9 insect cells (baculovirus)
T1 sequence (Q14191 with tags, fused parts or gaps L1074F limits assumed): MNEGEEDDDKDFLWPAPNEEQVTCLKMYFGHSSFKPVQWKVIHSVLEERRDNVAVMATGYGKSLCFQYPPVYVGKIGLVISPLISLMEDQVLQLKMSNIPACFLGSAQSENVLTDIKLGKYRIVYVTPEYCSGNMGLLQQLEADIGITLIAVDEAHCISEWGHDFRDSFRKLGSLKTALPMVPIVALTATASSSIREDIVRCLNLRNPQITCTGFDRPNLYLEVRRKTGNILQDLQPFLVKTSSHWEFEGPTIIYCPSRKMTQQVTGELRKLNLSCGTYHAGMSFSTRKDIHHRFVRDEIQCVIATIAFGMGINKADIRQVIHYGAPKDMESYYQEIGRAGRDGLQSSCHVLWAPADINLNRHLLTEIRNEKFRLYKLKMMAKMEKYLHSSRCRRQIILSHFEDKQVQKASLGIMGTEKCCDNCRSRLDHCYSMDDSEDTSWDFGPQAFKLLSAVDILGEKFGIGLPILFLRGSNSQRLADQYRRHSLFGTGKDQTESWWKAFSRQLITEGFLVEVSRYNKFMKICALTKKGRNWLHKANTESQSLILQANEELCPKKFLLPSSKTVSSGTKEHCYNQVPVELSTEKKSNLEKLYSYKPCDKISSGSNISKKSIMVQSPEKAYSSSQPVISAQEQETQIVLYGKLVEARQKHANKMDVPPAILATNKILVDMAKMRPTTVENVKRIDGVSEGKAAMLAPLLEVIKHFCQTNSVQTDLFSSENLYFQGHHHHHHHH
Format: biochemical
In short: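 Percent inhibition was normalised to DMSO (max) and 20 μM NSC-617145 (min) controls from ADP-Glo luminescence, and IC50 values came from a four-parameter fit. The reaction ran 60 min at 25 °C with 0.15 nM WRN, 5 μM ATP and 0.1 nM duplex DNA.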

**Q.** Which IC50 does the source give for `O=C(Cc1ccc(-n2cccc2)cc1)N(Cc1ccccc1)C1C=C(CO)S(=O)(=O)C1` (stereo not shown) [I-373, N-benzyl-N-[5-(hydroxymethyl)-1,1-dioxo-2,3-dihydro-1lambda6-thiophen-3-yl]-2-[4-(1H-pyrrol-1-yl)phenyl]acetamide] here?
**A.** > 50 µM

**Q.** Which IC50 does the source give for `COCc1cc(-c2ccc(F)cc2)ccc1CC(=O)N(Cc1ccncc1)C1C=CS(=O)(=O)C1` (stereo not shown) [I-376, N-(1,1-dioxo-2,3-dihydro-1lambda6-thiophen-3-yl)-2-[4′-fluoro-3-(methoxymethyl)-[1,1′-biphenyl]-4-yl]-N-[(pyridin-4-yl)methyl]acetamide] here?
**A.** > 50 µM

**Q.** Which IC50 does the source give for `CC(=O)N(C)C(C(=O)N(Cc1ccncc1)C1C=CS(=O)(=O)C1)c1ccc(-n2cccc2)cc1` (stereo not shown) [I-377, N-(1,1-dioxo-2,3-dihydro-1lambda6-thiophen-3-yl)-2-(N-methylacetamido)-N-[(pyridin-4-yl)methyl]-2-[4-(1H-pyrrol-1-yl)phenyl]acetamide] here?
**A.** > 50 µM

**Q.** Which IC50 does the source give for `COc1cc(CN(C(=O)Cc2cnn(-c3ccc(Cl)cc3)c2)C2C=CS(=O)(=O)C2)ccn1` (stereo not shown) [I-379, 2-[1-(4-chlorophenyl)-1H-pyrazol-4-yl]-N-(1,1-dioxo-2,3-dihydro-1lambda6-thiophen-3-yl)-N-[(2-methoxypyridin-4-yl)methyl]acetamide] here?
**A.** > 50 µM

**Q.** For `COc1cc(CN(C(=O)Cc2ccn(-c3ccc(Cl)cc3)n2)C2C=CS(=O)(=O)C2)ccn1` (stereo not shown) [I-380, 2-[1-(4-chlorophenyl)-1H-pyrazol-3-yl]-N-(1,1-dioxo-2,3-dihydro-1lambda6-thiophen-3-yl)-N-[(2-methoxypyridin-4-yl)methyl]acetamide], which IC50 is on record?
**A.** > 50 µM

**Q.** `COc1cc(CN(C(=O)Cc2ccc(-n3ccccc3=O)cc2F)C2C=CS(=O)(=O)C2)ccn1` (stereo not shown) [I-381, N-(1,1-dioxo-2,3-dihydro-1lambda6-thiophen-3-yl)-2-[2-fluoro-4-(2-oxo-1,2-dihydropyridin-1-yl)phenyl]-N-[(2-methoxypyridin-4-yl)methyl]acetamide] was tested. Which IC50 did it give?
**A.** > 50 µM

**Q.** With `O=C(Cc1ccc(-n2cccc2CCO)cc1)N(Cc1ccccc1)C1C=CS(=O)(=O)C1` (stereo not shown) [I-383, N-benzyl-N-(1,1-dioxo-2,3-dihydro-1lambda6-thiophen-3-yl)-2-{4-[2-(2-hydroxyethyl)-1H-pyrrol-1-yl]phenyl}acetamide] as the compound, how does the IC50 read?
**A.** > 50 µM

**Q.** For `COCCc1cccn1-c1ccc(CC(=O)N(Cc2ccccc2)C2C=CS(=O)(=O)C2)cc1` (stereo not shown) [I-384, N-benzyl-N-(1,1-dioxo-2,3-dihydro-1lambda6-thiophen-3-yl)-2-{4-[2-(2-methoxyethyl)-1H-pyrrol-1-yl]phenyl}acetamide], which IC50 is on record?
**A.** > 50 µM

**Q.** With `COc1cc(CN(C(=O)C2CN(C)c3cc(-c4ccc(F)cc4)ccc32)C2C=CS(=O)(=O)C2)ccn1` (stereo not shown) [I-385, N-(1,1-dioxo-2,3-dihydro-1lambda6-thiophen-3-yl)-6-(4-fluorophenyl)-N-[(2-methoxypyridin-4-yl)methyl]-1-methyl-2,3-dihydro-1H-indole-3-carboxamide] as the compound, how does the IC50 read?
**A.** > 50 µM

**Q.** Which IC50 does the source give for `N#CCCN(C(=O)Cc1ccc(-c2ccc(F)cc2)cc1)C1C=CS(=O)(=O)C1` (stereo not shown) [I-386, N-(2-cyanoethyl)-N-(1,1-dioxo-2,3-dihydro-1lambda6-thiophen-3-yl)-2-{4′-fluoro-[1,1′-biphenyl]-4-yl}acetamide] here?
**A.** > 50 µM

**Q.** Which IC50 does the source give for `CN(C)S(=O)(=O)c1ccc(CC(=O)N(Cc2ccncc2)C2C=CS(=O)(=O)C2)cc1` (stereo not shown) [I-388, 2-[4-(dimethylsulfamoyl)phenyl]-N-(1,1-dioxo-2,3-dihydro-1lambda6-thiophen-3-yl)-N-[(pyridin-4-yl)methyl]acetamide] here?
**A.** > 50 µM

**Q.** With `O=C(Cc1ccc(C(F)(F)F)cn1)N(Cc1ccncc1)C1C=CS(=O)(=O)C1` (stereo not shown) [I-389, N-(1,1-dioxo-2,3-dihydro-1lambda6-thiophen-3-yl)-N-[(pyridin-4-yl)methyl]-2-[5-(trifluoromethyl)pyridin-2-yl]acetamide] as the compound, how does the IC50 read?
**A.** > 50 µM

**Q.** How did the IC50 turn out when `O=C(Cc1ccn(-c2ccccc2)n1)N(Cc1ccncc1)C1C=CS(=O)(=O)C1` (stereo not shown) [I-390, N-(1,1-dioxo-2,3-dihydro-1lambda6-thiophen-3-yl)-2-(1-phenyl-1H-pyrazol-3-yl)-N-[(pyridin-4-yl)methyl]acetamide] was run?
**A.** > 50 µM

**Q.** `O=C(CCc1nc2cc(Cl)ccc2s1)N(Cc1ccncc1)C1C=CS(=O)(=O)C1` (stereo not shown) [I-391, 3-(5-chloro-1,3-benzothiazol-2-yl)-N-(1,1-dioxo-2,3-dihydro-1lambda6-thiophen-3-yl)-N-[(pyridin-4-yl)methyl]propanamide] was tested. Which IC50 did it give?
**A.** > 50 µM

**Q.** With `O=C(Cc1cccc(CC(F)(F)F)c1)N(Cc1ccncc1)C1C=CS(=O)(=O)C1` (stereo not shown) [I-393, N-(1,1-dioxo-2,3-dihydro-1lambda6-thiophen-3-yl)-N-[(pyridin-4-yl)methyl]-2-[3-(2,2,2-trifluoroethyl)phenyl]acetamide] as the compound, how does the IC50 read?
**A.** > 50 µM

**Q.** For `O=C(Cc1ccn(-c2ccc(F)cc2)n1)N(Cc1ccncc1)C1C=CS(=O)(=O)C1` (stereo not shown) [I-394, N-(1,1-dioxo-2,3-dihydro-1lambda6-thiophen-3-yl)-2-[1-(4-fluorophenyl)-1H-pyrazol-3-yl]-N-[(pyridin-4-yl)methyl]acetamide], which IC50 is on record?
**A.** > 50 µM

**Q.** How did the IC50 turn out when `O=C(CCc1cc2ccccc2[nH]1)N(Cc1ccncc1)C1C=CS(=O)(=O)C1` (stereo not shown) [I-396, N-(1,1-dioxo-2,3-dihydro-1lambda6-thiophen-3-yl)-3-(1H-indol-2-yl)-N-[(pyridin-4-yl)methyl]propanamide] was run?
**A.** > 50 µM

**Q.** For `O=C(N[C@H](Cc1c[nH]c2ccccc12)C(=O)N(Cc1ccncc1)C1C=CS(=O)(=O)C1)C1CC1` (stereo partly drawn) [I-397, (2R)-2-(cyclopropylformamido)-N-(1,1-dioxo-2,3-dihydro-1lambda6-thiophen-3-yl)-3-(1H-indol-3-yl)-N-[(pyridin-4-yl)methyl]propanamide], which IC50 is on record?
**A.** > 50 µM

**Q.** `COc1cc(CN(C(=O)C2Cc3cc(-c4ccc(F)cc4)ccc3O2)C2C=CS(=O)(=O)C2)ccn1` (stereo not shown) [I-399, N-(1,1-dioxo-2,3-dihydro-1lambda6-thiophen-3-yl)-5-(4-fluorophenyl)-N-[(2-methoxypyridin-4-yl)methyl]-2,3-dihydro-1-benzofuran-2-carboxamide] was tested. Which IC50 did it give?
**A.** > 50 µM

**Q.** How did the IC50 turn out when `O=C(Cc1ccc(-c2ccc(F)cc2)c(C(F)F)c1)N(Cc1ccncc1)C1C=CS(=O)(=O)C1` (stereo not shown) [I-401, 2-[2-(difluoromethyl)-4′-fluoro-[1,1′-biphenyl]-4-yl]-N-(1,1-dioxo-2,3-dihydro-1lambda6-thiophen-3-yl)-N-[(pyridin-4-yl)methyl]acetamide] was run?
**A.** > 50 µM

**Q.** `O=C(Cc1ccc(-n2cccc2)cc1)N(Cc1nc(C2CC2)cs1)[C@H]1C=CS(=O)(=O)C1` [I-402, N-[(4-cyclopropyl-1,3-thiazol-2-yl)methyl]-N-[(3S)-1,1-dioxo-2,3-dihydro-1lambda6-thiophen-3-yl]-2-[4-(1H-pyrrol-1-yl)phenyl]acetamide] was tested. Which IC50 did it give?
**A.** > 50 µM

**Q.** For `O=C(Cn1cc(-c2ccccc2)nn1)N(Cc1ccncc1)C1C=CS(=O)(=O)C1` (stereo not shown) [I-403, N-(1,1-dioxo-2,3-dihydro-1lambda6-thiophen-3-yl)-2-(4-phenyl-1H-1,2,3-triazol-1-yl)-N-[(pyridin-4-yl)methyl]acetamide], which IC50 is on record?
**A.** > 50 µM

**Q.** How did the IC50 turn out when `O=C(Cc1cnn(-c2ccccc2)n1)N(Cc1ccncc1)C1C=CS(=O)(=O)C1` (stereo not shown) [I-406, N-(1,1-dioxo-2,3-dihydro-1lambda6-thiophen-3-yl)-2-(2-phenyl-2H-1,2,3-triazol-4-yl)-N-[(pyridin-4-yl)methyl]acetamide] was run?
**A.** > 50 µM

**Q.** For `O=C(Cn1cc(C2CCOC2)cn1)N(Cc1ccncc1)C1C=CS(=O)(=O)C1` (stereo not shown) [I-407, N-(1,1-dioxo-2,3-dihydro-1lambda6-thiophen-3-yl)-2-[4-(oxolan-3-yl)-1H-pyrazol-1-yl]-N-[(pyridin-4-yl)methyl]acetamide], which IC50 is on record?
**A.** > 50 µM

**Q.** With `O=C(Cn1cc(Br)cn1)N(Cc1ccncc1)C1C=CS(=O)(=O)C1` (stereo not shown) [I-408, 2-(4-bromo-1H-pyrazol-1-yl)-N-(1,1-dioxo-2,3-dihydro-1lambda6-thiophen-3-yl)-N-[(pyridin-4-yl)methyl]acetamide] as the compound, how does the IC50 read?
**A.** > 50 µM

**Q.** `O=C(Cc1cnn(-c2ccccc2)c1)N(Cc1ccncc1)C1C=CS(=O)(=O)C1` (stereo not shown) [I-409, N-(1,1-dioxo-2,3-dihydro-1lambda6-thiophen-3-yl)-2-(1-phenyl-1H-pyrazol-4-yl)-N-[(pyridin-4-yl)methyl]acetamide] was tested. Which IC50 did it give?
**A.** > 50 µM

**Q.** For `O=C(Cc1coc(-c2ccc(F)c(F)c2)n1)N(Cc1ccncc1)C1C=CS(=O)(=O)C1` (stereo not shown) [I-410, 2-[2-(3,4-difluorophenyl)-1,3-oxazol-4-yl]-N-(1,1-dioxo-2,3-dihydro-1lambda6-thiophen-3-yl)-N-[(pyridin-4-yl)methyl]acetamide], which IC50 is on record?
**A.** > 50 µM

**Q.** For `COc1ccc2[nH]c(CC(=O)N(Cc3ccncc3)C3C=CS(=O)(=O)C3)cc2c1` (stereo not shown) [I-412, N-(1,1-dioxo-2,3-dihydro-1lambda6-thiophen-3-yl)-2-(5-methoxy-1H-indol-2-yl)-N-[(pyridin-4-yl)methyl]acetamide], which IC50 is on record?
**A.** > 50 µM

**Q.** Which IC50 does the source give for `O=C(CCc1[nH]nc2ccccc12)N(Cc1ccncc1)C1C=CS(=O)(=O)C1` (stereo not shown) [I-413, N-(1,1-dioxo-2,3-dihydro-1lambda6-thiophen-3-yl)-3-(2H-indazol-3-yl)-N-[(pyridin-4-yl)methyl]propanamide] here?
**A.** > 50 µM

**Q.** For `O=C(Cc1ccc2c[nH]nc2c1)N(Cc1ccncc1)C1C=CS(=O)(=O)C1` (stereo not shown) [I-414, N-(1,1-dioxo-2,3-dihydro-1lambda6-thiophen-3-yl)-2-(2H-indazol-6-yl)-N-[(pyridin-4-yl)methyl]acetamide], which IC50 is on record?
**A.** > 50 µM

**Q.** `O=C(CC1CCC(c2ccccc2)CC1)N(Cc1ccncc1)C1C=CS(=O)(=O)C1` (stereo not shown) [I-416, N-(1,1-dioxo-2,3-dihydro-1lambda6-thiophen-3-yl)-2-(4-phenylcyclohexyl)-N-[(pyridin-4-yl)methyl]acetamide] was tested. Which IC50 did it give?
**A.** > 50 µM
